Test results as given in ChEMBL document CHEMBL4811222, “Antitumor Activity of Asperphenin B by Induction of Apoptosis and Regulation of Glyceraldehyde-3-phosphate Dehydrogenase in Human Colorectal Cancer Cells” (J Nat Prod, 2021).
Calls of active or inactive are those of the source. The rule behind the calls is not given here.

Columns and labels:
[1] = system: RKO; assay: Induction of E-cadherin expression in human RKO cells after 24 hrs by Western blotting analysis; type: functional, cell-based
[2] = system: HCT-116; assay: Antimigratory activity against human HCT116 cells implanted in nude mouse assessed as inhibition of liver cells migration after 24 hrs by wound healing assay; type: functional, cell-based; conditions: dose 3-6 µM
[3] = system: RKO; assay: Induction of cell cycle arrest in human RKO cells assessed as accumulation at G2/M phase at 2.5 uM after 24 hrs by RNase A/propidium iodide staining based flow cytometric analysis (reference value: 24.63 %); type: functional
[4] = system: RKO; assay: Induction of cell cycle arrest in human RKO cells assessed as accumulation at G0/G1 phase at 2.5 uM after 24 hrs by RNase A/propidium iodide staining based flow cytometric analysis (reference value: 51.49 %); type: functional
[5] = system: RKO; assay: Induction of cell cycle arrest in human RKO cells assessed as upregulation of phospho-Chk2 expression at 1.25 to 5 uM measured after 24 hrs by Western blot analysis; type: functional, cell-based; conditions: dose 1.25-5 µM
[6] = system: RKO; assay: Antitumor activity against human RKO cells implanted in ip dosed BALB/c nude mouse assessed as suppression of GAPDH expression in tumor lysates administered three times per week for 21 days by Western blotting analysis; type: functional, organism-based; conditions: Neoplasm, time 21.0 day
[7] = system: RKO; assay: Induction of cell cycle arrest in human RKO cells assessed as accumulation at G2/M phase at 2.5 uM after 48 hrs by RNase A/propidium iodide staining based flow cytometric analysis (reference value: 24.63 %); type: functional
[8] = system: RKO; assay: Induction of apoptosis in human RKO cells assessed as decrease in survivin expression at 2.5 uM by Western blotting analysis; type: functional, cell-based; conditions: time 12-48 hrs, TDE = time-dependent effect
[9] = system: CCD-841CoN; assay: Antiproliferative activity against human CCD-841CoN cells assessed as inhibition of cell growth incubated for 72 hrs by SRB assay; type: cell-based
[10] = system: RKO; assay: Induction of apoptosis in human RKO cells assessed as modulation of cleaved PARP expression level after 48 hrs by Western blotting analysis; type: functional, cell-based; conditions: dose 2.5-10 µM
[11] = system: RKO; assay: Suppression of GAPDH protein expression in human RKO cells after 24 hrs by Western blotting analysis; type: functional, cell-based; conditions: dose 2.5-10 µM
[12] = system: SW480; assay: Antiproliferative activity against human SW480 cells assessed as inhibition of cell growth incubated for 72 hrs by SRB assay; type: functional, cell-based; conditions: SW480, 72 h
[13] = system: HCT-116; assay: Suppression of GAPDH expression in […] at 3 to 6 uM after 24 hrs by Western blotting analysis; type: functional, cell-based; conditions: dose 3-6 µM
[14] = system: RKO; assay: Induction of cell cycle arrest in human RKO cells assessed as upregulation of p-Cdc2 at Y15 residue expression measured after 24 hrs by Western blot analysis; type: functional, cell-based; conditions: dose 1.25-5 µM
[15] = system: HCT-116; assay: Upregulation of E-cadherin expression in […] at 3 to 6 uM after 24 hrs by Western blotting analysis; type: functional, cell-based; conditions: dose 3-6 µM
[16] = system: RKO; assay: Induction of cell cycle arrest in human RKO cells assessed as accumulation at G2/M phase at 2.5 uM after 12 hrs by RNase A/propidium iodide staining based flow cytometric analysis (reference value: 24.63 %); type: functional
[17] = system: RKO; assay: Induction of cell cycle arrest in human RKO cells assessed as accumulation at S phase at 2.5 uM after 12 hrs by RNase A/propidium iodide staining based flow cytometric analysis (reference value: 13.33 %); type: functional
[18] = system: RKO; assay: Induction of apoptosis in human RKO cells assessed as total apoptotic cells at 5 uM after 48 hrs by Annexin V/PI staining based flow cytometric analysis; type: functional
[19] = system: RKO; assay: Induction of cell cycle arrest in human RKO cells assessed as accumulation at G2/M phase at 5 uM after 24 hrs by RNase A/propidium iodide staining based flow cytometric analysis (reference value: 24.38 %); type: functional
[20] = system: RKO; assay: Antitumor activity against human RKO cells implanted in BALB/c nude mouse assessed as inhibition of tumor growth at 8 mg/kg, ip administered three times per week for 21 days and measured every 3 to 4 days by electronic caliper method; type: functional; conditions: 504 h, time 21 day, read-out: TGI
[21] = system: RKO; assay: Induction of apoptosis in human RKO cells assessed as increase in cleaved caspase 3 expression at 2.5 uM measured upto 48 hrs by Western blotting analysis; type: functional, cell-based; conditions: time hrs <=48
[22] = system: RKO; assay: Induction of cell cycle arrest in human RKO cells assessed as accumulation at G0/G1 phase at 1.25 uM after 24 hrs by RNase A/propidium iodide staining based flow cytometric analysis (reference value: 51.49 %); type: functional
[23] = system: RKO; assay: Induction of cell cycle arrest in human RKO cells assessed as accumulation at sub-G1 phase at 5 uM after 24 hrs by RNase A/propidium iodide staining based flow cytometric analysis (reference value: 0.40 %); type: functional
[24] = system: RKO; assay: Induction of cell cycle arrest in human RKO cells assessed as inactivation of Cdc25C protein at 1.25 to 5 uM measured after 24 hrs by Western blot analysis; type: functional, cell-based; conditions: dose 1.25-5 µM
[25] = system: RKO; assay: Induction of cell cycle arrest in human RKO cells assessed as accumulation at G0/G1 phase at 2.5 uM after 36 hrs by RNase A/propidium iodide staining based flow cytometric analysis (reference value: 60.58 %); type: functional
[26] = system: RKO; assay: Induction of cell cycle arrest in human RKO cells assessed as accumulation at S phase at 1.25 uM after 24 hrs by RNase A/propidium iodide staining based flow cytometric analysis (reference value: 24.20 %); type: functional
[27] = system: RKO; assay: Induction of cell cycle arrest in human RKO cells assessed as accumulation at sub-G1 phase at 2.5 uM after 12 hrs by RNase A/propidium iodide staining based flow cytometric analysis (reference value: 0.89 %); type: functional
[28] = system: RKO; assay: Induction of cell cycle arrest in human RKO cells assessed as accumulation at G0/G1 phase at 2.5 uM after 24 hrs by RNase A/propidium iodide staining based flow cytometric analysis (reference value: 60.58 %); type: functional
[29] = system: RKO; assay: Induction of apoptosis in human RKO cells assessed as increase in p53 level at 2.5 uM measured upto 48 hrs by Western blotting analysis; type: functional, cell-based; conditions: time hrs <=48
[30] = system: RKO; assay: Induction of apoptosis in human RKO cells assessed as increase in cleaved PARP expression at 2.5 uM measured upto 48 hrs by Western blotting analysis; type: functional, cell-based; conditions: time hrs <=48
[31] = system: RKO; assay: Induction of cell cycle arrest in human RKO cells assessed as accumulation at S phase at 2.5 uM after 48 hrs by RNase A/propidium iodide staining based flow cytometric analysis (reference value: 13.33 %); type: functional
[32] = system: RKO; assay: Antitumor activity against human RKO cells implanted in BALB/c nude mouse assessed as suppression of Ki67 expression level in tumor lysates at 4 to 8 mg/kg, ip administered three times per week for 21 days by Western blotting analysis; type: functional, organism-based; conditions: Neoplasm, dose 4-8 mg/kg, time 21.0 day
[33] = system: LS174T; assay: Antiproliferative activity against human LS174T cells assessed as inhibition of cell growth incubated for 72 hrs by SRB assay; type: functional, cell-based
[34] = system: RKO; assay: Induction of cell cycle arrest in human RKO cells assessed as accumulation at S phase at 2.5 uM after 24 hrs by RNase A/propidium iodide staining based flow cytometric analysis (reference value: 24.20 %); type: functional
[35] = Toxicity in BALB/c nude mouse implanted with human RKO cells assessed as change in body weight at 4 to 8 mg/kg, ip administered three times per week for 21 days; type: organism-based; conditions: in vivo, 504 h, dose 4-8 mg/kg, time 21 day

Structure (SMILES): CCCCCCCCC[C@@H](O)CC(=O)N[C@@H](CC(N)=O)C(=O)N[C@@H](CCC(N)=O)C(=O)N[C@H](CC(=O)c1cc(C)cc(O)c1C(=O)c1c(O)cccc1O)CC(C)C
- Activity [1]: Active
- inhibition [2]: Dose-Dependent Effect
- Activity [3]: 48.54%
- Activity [4]: 32.4%
- Activity [5]: Active
- Activity [6]: Dose-Dependent Effect
- Activity [7]: 41.66%
- Activity [8]: Tde
- IC50 [9]: 47.2 µM
- Activity [10]: Dose-Dependent Effect
- Activity [11]: Dose-Dependent Effect
- IC50 [12]: 2.37 µM
- Activity [13]: Active
- Activity [14]: Dose-Dependent Effect
- Activity [15]: Active
- Activity [16]: 27.91%
- Activity [17]: 16.82%
- Activity [18]: 36.58%
- Activity [19]: 51.77%
- inhibition in vivo at 8 mg/kg [20]: 57.1%
- Activity [21]: Active
- Activity [22]: 46.96%
- Activity [23]: 1.1%
- Activity [24]: Active
- Activity [25]: 22.38%
- Activity [26]: 23.61%
- Activity [27]: 0.88%
- Activity [28]: 33.93%
- Activity [29]: Active
- Activity [30]: Active
- Activity [31]: 10.43%
- Activity [32]: Active
- IC50 [33]: 6.36 µM
- Activity [34]: 23.35%
- Activity [35]: Non-Toxic
